In the assay the test system is HCC 1806 cells. The assay can be described thus: Cell proliferation inhibitory effect on human breast cancer cell line (crystal violet, 72 hours). The assay is classed as cell-based. As to conditions: read-out: Cell growth suppression IC50. On the procedure: Human derived breast cancer cell line HCC 1806 cells were daily passaged at a cell density not exceeding 80% in ATCC recommended Roswell Park Memorial Institute medium (RPMI-1640) containing 10% fetal bovine serum (FBS). In order to start the test of cell proliferation inhibitory activity, HCC 1806 cells were suspended in the above medium, after seeing at 180 μl in each well of a 96-well flat bottom plate so that the number of cells per well was 2,000, the cells were cultured at 37° C. for 1 day in an incubator containing 5% carbon dioxide gas. On the next day, the test compound was dissolved in DMSO, and 20 μl of a drug additive solution diluted serially with distilled water to 10 times of the final concentration was added to each well of the culture plate of the cells, and the cells were cultured at 37° C. for 72 hours in an incubator containing 5% carbon dioxide gas. […] 100 μL of an extract solution (0.1 N NaH2PO4: 100% ethanol=1:1) was added to each well and mixed, and the mixture was measured at a wavelength of 540 nm using a plate reader (MTP-450 manufactured by Corona Electric Co., Ltd.). […]
T: Absorbance of well to which test compound was added
C: Absorbance of wells to which no test compound was added
B: Absorbance of wells to which no cell suspension was added

The term IC50 denotes the concentration that gives 50% inhibition.

On to `Cc1ccc(F)c([C@@H](C)[C@H](NS(=O)(=O)c2ccc(C(F)(F)F)c3c2OCCC3(C)O)c2n[nH]c(=O)o2)c1C` (single isomer, unassigned) [Example 225A], for which the concentration for half-maximal inhibition (IC50) was 600 nM.

Values taken from patent US11634395B2, “Sulfonamide compound or salt thereof” (Taiho Pharmaceutical Co., Ltd., priority 2016, dated 2023).
